Experimental data reported in patent US20020128256A1, “Methods for the treatment or prevention of inflammatory diseases characterized by abnormal cell proliferation” (priority 1997, published 2002).
pIC50: −log10 of the molar value. Read-outs that look alike come from different tables or passages of the source.

How the values were obtained:
[1] = target: T1, Gardos channel of erythrocytes (Homo sapiens, UniProt O15554); test: Gardos Channel Assay; type: cell-based; details: for inhibition at 10 µM: read-out: Gardos Channel Assay Inhibition (%)
T1 construct: endogenous in cells; host or cells: erythrocytes

[2] = test system: NIH 3T3 mouse fibroblast cells; test: Mitogenic Assay (mitogen-induced cell proliferation); type: cell-based
HEPG2 = test: SRB antiproliferative assay, HEPG2; type: cell-based; details: Homo sapiens
Description: (§1) The antiproliferative assays described herein were performed using standard aseptic procedures and universal precautions for the use of tissues. Cells were propagated using RPMI 1640 media (Gibco) containing 2% N 5% fetal calf serum (Biowhittaker) at 37° C., 5% CO2 and 95% humidity. The cells were passaged using Trypsin (Gibco). Prior to addition of test compound, the cells were harvested, the cell number counted and seeded at 10,000 cells/well in 100 μl 5% fetal calf serum (FCS) containing RPMI medium in 96-well plates and incubated overnight at 37° C., 5% CO2 and 95% humidity.
(§2) Following incubation, the cellular protein was determined with the ulforhodamine B (SRB) assay (Skehan P et al., 1990, J. Natl. Cancer Inst. 82:1107-1112).

U118MG = test: SRB antiproliferative assay, U118MG; type: cell-based; details: Homo sapiens, U-118-MG
Description: as §1, §2

L929 = test: SRB assay, normal cells L929; type: cell-based, mouse; details: Mus musculus, L929, 120 h, read-out: SRB assay IC50
Description: as §1, §2

DU-145 = test: SRB antiproliferative assay, DU-145; type: cell-based; details: Homo sapiens, DU-145, 120 h, read-out: SRB assay IC50
Description: as §1, §2

A549 = test: SRB antiproliferative assay, A549; type: cell-based; details: Homo sapiens
Description: as §1, §2

3T3 = test: SRB assay, normal cells 3T3; type: cell-based, mouse; details: Mus musculus, NIH3T3, 120 h, read-out: SRB assay IC50
Description: as §1, §2

SK-MEL-28 = test: SRB antiproliferative assay, SK-MEL-28; type: cell-based; details: Homo sapiens, SK-MEL-28, 120 h, read-out: SRB assay IC50
Description: as §1, §2

CaSki = test: SRB antiproliferative assay, CaSki; type: cell-based; details: Homo sapiens, Ca-Ski, 120 h, read-out: SRB assay IC50
Description: as §1, §2

ACHN = test: SRB antiproliferative assay, ACHN; type: cell-based; details: Homo sapiens, ACHN, 120 h, read-out: SRB assay IC50
Description: as §1, §2

HTB174 = test: SRB antiproliferative assay, HTB174; type: cell-based; details: 120 h, read-out: SRB assay IC50
Description: as §1, §2

MCF7 = test: SRB antiproliferative assay, MCF7; type: cell-based; details: Homo sapiens
Description: as §1, §2

HUVEC = test: SRB assay, normal cells HUVEC; type: cell-based, human; details: Homo sapiens, HUVEC, 120 h, read-out: SRB assay IC50
Description: as §1, §2

MDA-MB-231 = test: SRB antiproliferative assay, MDA-MB-231; type: cell-based; details: Homo sapiens, 120 h, read-out: SRB assay IC50
HCT-15 = test: SRB antiproliferative assay, HCT-15; type: cell-based; details: Homo sapiens, HCT-15, 120 h, read-out: SRB assay IC50
Description: as §1, §2

HeLa = test: SRB antiproliferative assay, HeLa; type: cell-based; details: Homo sapiens, HeLa, 120 h, read-out: SRB assay IC50
Description: as §1, §2

HT29 = test: SRB antiproliferative assay, HT29; type: cell-based; details: Homo sapiens
Description: as §1, §2

GM = test: SRB assay, normal cells GM; type: cell-based, human; details: Homo sapiens, 120 h, read-out: SRB assay IC50
Description: as §1, §2

MMRU = test: SRB antiproliferative assay, MMRU; type: cell-based, human; details: Homo sapiens
Description: Cells were propagated using RPMI 1640 media (Gibco) containing 2% N 5% fetal calf serum (Biowhittaker) at 37° C., 5% CO2 and 95% humidity. The cells were passaged using Trypsin (Gibco). Prior to addition of test compound, the cells were harvested, the cell number counted and seeded at 10,000 cells/well in 100 μl 5% fetal calf serum (FCS) containing RPMI medium in 96-well plates and incubated overnight at 37° C., 5% CO2 and 95% humidity.
as §2

Gardos channel = Gardos channel (Homo sapiens, UniProt O15554); parameters: host or cells: sickle erythrocytes (printed for Clotrimazole only); details: cited from earlier work
[3] = measured at 10 μM compound, NIH 3T3 cells
[4] = erythrocytes, read-out: Gardos Channel Assay IC50
[5] = Mus musculus, NIH3T3, measured at 10 μM compound, NIH 3T3 cells, read-out: Mitogenic Assay Inhibition (%)
[6] = NIH3T3, NIH 3T3 mouse fibroblast cells, mitogen-induced proliferation, read-out: Mitogenic Assay IC50
[7] = NIH 3T3 mouse fibroblast cells, mitogen-induced proliferation, read-out: Mitogenic Assay IC50
[8] = HepG2, 120 h, read-out: SRB assay IC50
[9] = 120 h, read-out: SRB assay IC50
[10] = A549, 120 h, read-out: SRB assay IC50
[11] = MCF7, 120 h, read-out: SRB assay IC50
[12] = HT-29, 120 h, read-out: SRB assay IC50

Sequence of Gardos channel (O15554 whole entry): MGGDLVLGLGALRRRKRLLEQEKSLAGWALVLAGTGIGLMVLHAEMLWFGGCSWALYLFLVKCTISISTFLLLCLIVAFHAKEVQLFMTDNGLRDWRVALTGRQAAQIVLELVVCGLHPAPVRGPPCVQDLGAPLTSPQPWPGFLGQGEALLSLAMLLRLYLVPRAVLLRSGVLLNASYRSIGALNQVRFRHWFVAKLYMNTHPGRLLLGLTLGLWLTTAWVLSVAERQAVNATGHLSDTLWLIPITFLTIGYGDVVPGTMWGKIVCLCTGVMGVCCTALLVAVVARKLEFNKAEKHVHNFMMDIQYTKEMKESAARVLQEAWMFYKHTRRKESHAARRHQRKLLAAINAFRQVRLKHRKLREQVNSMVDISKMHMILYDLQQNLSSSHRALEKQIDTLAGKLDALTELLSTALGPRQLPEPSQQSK
T1 sequence (O15554 whole entry): as above

For “2-(Ethyl-2′-(1,3-dioxolane))-1-hydroxy-3,3-diphenylindene [Compound 20]”, the “Gardos Channel Assay Inhibition (%)” value ([1]; measured at 10 μM compound) was 0% and the “Mitogenic Assay Inhibition (%)” value [2, 3] was 81.0%.
In the case of “3,3-Diphenyl-1-indanyl α-(4-methyltoluate) ether [Compound 17]”, the “Gardos Channel Assay Inhibition (%)” value ([1]; measured at 10 μM compound) was 0% and the “Mitogenic Assay Inhibition (%)” value [2, 3] was 76.0%.
For `NC1=Nc2ccccc2C1(c1ccccc1)c1ccccc1` [Compound 1], the pIC50 [1, 4] was 6.38, the inhibition at 10 µM ([1]; measured at 10 μM compound) was 98% and the inhibition at 10 µM [2, 5] was 97%. For the same compound, the pIC50 [2, 6] was 6.15.
`O=C1CC(c2ccccc2)(c2ccccc2)c2ccccc21` [Compound 2, 3,3-Diphenylindanone] gave a pIC50 [1, 4] of 6.00 and an inhibition at 10 µM ([1]; measured at 10 μM compound) of 100%.
`OC1CC(c2ccccc2)(c2ccccc2)c2ccccc21` (stereo not drawn) [Compound 3, 1-Hydroxy-3,3-Diphenylindane] gave a melting point of 133 to 135 °C, a pIC50 [1, 4] of 6.09 and an inhibition at 10 µM [1] of 100%.
Work on `O/N=C1\CC(c2ccccc2)(c2ccccc2)c2ccccc21` [Compound 4, 1-N-Oxime-3,3-Diphenylindane] yielded a melting point of 138 to 141 °C, a pIC50 [1, 4] of 5.87 and an inhibition at 10 µM ([1]; measured at 10 μM compound) of 100%.
With `N#CC1OC12CC(c1ccccc1)(c1ccccc1)c1ccccc12` (stereo not drawn) [Compound 5, Spiro[3,3-diphenyl-2,3-dihydro(1H)indene-1,3′-2′-cyanooxirane]] the “Gardos Channel Assay Inhibition (%)” value ([1]; measured at 10 μM compound) was 67.3% and the “Mitogenic Assay Inhibition (%)” value [2, 3] was 29.0%.
With `C=CCOC1c2ccccc2C(c2ccccc2)(c2ccccc2)C1CC=C` (stereo not drawn) [Compound 6, 2-(2′-Propenyl)-1-(2′-propenoxy)-3,3-diphenylindane] the “Gardos Channel Assay Inhibition (%)” value ([1]; measured at 10 μM compound) was 35.0%, the pIC50 [2, 7] was 5.47 and the “Mitogenic Assay Inhibition (%)” value [2, 3] was 90.0%.
In the case of `CC(=O)OC1CC(c2ccccc2)(c2ccccc2)c2ccccc21` (stereo not drawn) [Compound 7, 1-Acetoxy-3,3-diphenylindane], the melting point was 90 °C, the pIC50 [1] was 5.94 and the inhibition at 10 µM ([1]; measured at 10 μM compound) was 88%.
Work on `O=C1CC(c2ccc(Cl)cc2)(c2ccc(Cl)cc2)c2ccc(Cl)cc21` [Compound 8, 6-Chloro-3,3-di(4-chlorophenyl)indanone] yielded a pIC50 (HEPG2; [8]) of 5.19, a pIC50 (HEPG2; HepG2, read-out: SRB IC50) of 5.11 and a melting point of 134 °C. The pIC50 (U118MG; [9]) was less than 5.00, the pIC50 (U118MG; read-out: SRB IC50) was less than 5.00 and the pIC50 (L929) was less than 5.00. The pIC50 (DU-145) was less than 5.00, the pIC50 (A549; [10]) was 5.05 and the pIC50 (A549; A549, read-out: SRB IC50) was less than 5.00. It also gave a pIC50 (3T3) of less than 5.00, a pIC50 (SK-MEL-28) of less than 5.00 and a pIC50 (CaSki) of 5.17. The pIC50 (ACHN) was less than 5.00, the pIC50 ([2]; Mus musculus, NIH3T3, read-out: Mitogenic Assay IC50) was 5.70 and the inhibition at 10 µM ([2]; Mus musculus, NIH3T3, read-out: Mitogenic Assay Inhibition (%)) was 97%. The pIC50 (HTB174) was less than 5.00, the pIC50 (MCF7; [11]) was 5.26 and the pIC50 (MCF7; MCF7, read-out: SRB IC50) was less than 5.00. It also gave a pIC50 (HUVEC) of less than 5.00, a pIC50 (MDA-MB-231) of less than 5.00 and a pIC50 (HCT-15) of less than 5.00. It also gave a pIC50 (HeLa) of less than 5.00, a pIC50 (HT29; [12]) of 5.08 and a pIC50 (HT29; HT-29, read-out: SRB IC50) of less than 5.00. For the same compound, the pIC50 (GM) was less than 5.00, the pIC50 (MMRU; [9]) was less than 5.00 and the pIC50 (MMRU; read-out: SRB IC50) was 5.48.
Work on `N#CCC1C(=O)c2ccccc2C1(c1ccccc1)c1ccccc1` (stereo not drawn) [Compound 9, 2-cyanomethyl-3,3-diphenylindanone] yielded a pIC50 [1, 4] of 6.30 and an inhibition at 10 µM [1] of 100%.
Compound `N#CCC1C(=O)c2cc(Cl)ccc2C1(c1ccc(Cl)cc1)c1ccc(Cl)cc1` (stereo not drawn) [Compound 10, 6-Chloro-2-cyanomethyl-3,3-di(4′-chlorophenyl)indanone] has an inhibition at 10 µM ([1]; measured at 10 μM compound) of 49.5%, an inhibition at 10 µM [2, 5] of 98% and a pIC50 [2, 6] of 5.48.
With `NC(=O)CC1C(=O)c2ccccc2C1(c1ccccc1)c1ccccc1` (stereo not drawn) [Compound 12, 2-Acetamide-3,3-diphenylindanone] the melting point was 169 to 171 °C, the pIC50 [1, 4] was 6.72 and the inhibition at 10 µM ([1]; measured at 10 μM compound) was 99.5%.
`N#CCC1C(O)c2ccccc2C1(c1ccccc1)c1ccccc1` (stereo not drawn) [Compound 13, 2-Cyanomethyl-3,3-diphenylindanol] gave a melting point of 79 to 85 °C, a pIC50 [1, 4] of 5.80 and an inhibition at 10 µM ([1]; measured at 10 μM compound) of 99.5%. For the same compound, the inhibition at 10 µM [2, 5] was 12%.
In the case of `NC(=O)CC1C(O)c2ccccc2C1(c1ccccc1)c1ccccc1` (stereo not drawn) [Compound 14, 2-Acetamide-3,3-diphenylindanol], the melting point was 218 to 220 °C, the pIC50 [1, 4] was 5.53 and the inhibition at 10 µM ([1]; measured at 10 μM compound) was 90.5%. It also gave an inhibition at 10 µM [2, 5] of 3%.
For `COC(=O)CC1C(=O)c2ccccc2C1(c1ccccc1)c1ccccc1` (stereo not drawn) [Compound 15, 3,3-Diphenylindanone-2-methyl acetate], the pIC50 [1, 4] was 5.54, the “Gardos Channel Assay Inhibition (%)” value ([1]; measured at 10 μM compound) was 54.8% and the pIC50 [2, 7] was 5.12. For the same compound, the “Mitogenic Assay Inhibition (%)” value [2, 3] was 80.0%.
`c1ccc(C2(c3ccccc3)CC(OCc3ccc4ccccc4c3)c3ccccc32)cc1` (stereo not drawn) [Compound 16, 3,3-Diphenyl-1-indanyl 2-naphthylmethyl ether] showed an inhibition at 10 µM ([1]; measured at 10 μM compound) of 0% and an inhibition at 10 µM [2, 5] of 75%.
For `Clc1ccccc1COC1CC(c2ccccc2)(c2ccccc2)c2ccccc21` (stereo not drawn) [Compound 18, 3,3-Diphenyl-1-indanyl α-(2-chlorotoluyl) ether], the “Gardos Channel Assay Inhibition (%)” value ([1]; measured at 10 μM compound) was 0% and the “Mitogenic Assay Inhibition (%)” value [2, 3] was 73.0%.
`O=C1c2ccccc2C(c2ccccc2)(c2ccccc2)C1CCCO` (stereo not drawn) [Compound 19, 3-(3′,3′-diphenyl-2′-indanyl-1′-one)propanol] gave a melting point of 98 °C, a pIC50 [1] of 5.23 and an inhibition at 10 µM [1] of 43.7%.
In the case of `COc1cc([C@@H]2c3cc4c(cc3[C@@H](O[C@@H]3O[C@@H]5CO[C@@H](C)O[C@H]5[C@H](O)[C@H]3O)[C@H]3COC(=O)[C@H]23)OCO4)cc(OC)c1O` [VP-16, Etoposide (VP-16), reference compound], the pIC50 (HEPG2; [8]) was greater than 5.90, the pIC50 (U118MG; [9]) was 5.66 and the pIC50 (L929) was greater than 5.90. The pIC50 (DU-145) was greater than 5.90, the pIC50 (A549; [10]) was greater than 5.90 and the pIC50 (A549; A549, read-out: SRB IC50) was 5.64. It also gave a pIC50 (SK-MEL-28) greater than 5.90, a pIC50 (CaSki) of 5.74 and a pIC50 (ACHN) greater than 5.90. It also gave a pIC50 (HTB174) greater than 5.90, a pIC50 (MCF7; [11]) greater than 5.90 and a pIC50 (MCF7; MCF7, read-out: SRB IC50) greater than 5.60. The pIC50 (HUVEC) was greater than 5.90, the pIC50 (MDA-MB-231) was greater than 5.90 and the pIC50 (HCT-15) was 5.89. It also gave a pIC50 (HeLa) greater than 5.90, a pIC50 (HT29; [12]) greater than 5.90 and a pIC50 (HT29; HT-29, read-out: SRB IC50) of 4.70. The pIC50 (GM) was 5.85, the pIC50 (MMRU; [9]) was greater than 5.90 and the pIC50 (MMRU; read-out: SRB IC50) was greater than 5.60.
In the case of `Clc1ccc(CCC(Cn2ccnc2)Sc2c(Cl)cccc2Cl)cc1` (stereo not drawn) [butoconazole], the “Gardos channel inhibition in vitro” value (Gardos channel) is given as “inhibit the Gardos channel in vitro”.
For `Clc1ccc(COC(Cn2ccnc2)c2ccc(Cl)cc2Cl)cc1` (stereo not drawn) [econazole], the “Gardos channel inhibition in vitro” value (Gardos channel) is listed as “inhibit the Gardos channel in vitro”.
In the case of `Clc1ccc(COC(Cn2ccnc2)c2ccc(Cl)cc2Cl)c(Cl)c1` (stereo not drawn) [miconazole], the “Gardos channel inhibition in vitro” value (Gardos channel) is listed as “inhibit the Gardos channel in vitro”.
